Results from ChEMBL document CHEMBL1201862, “PubChem BioAssay data set” (2004).
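Step 1: Grow cells in 96-well plates. Step 2: Expose to compound for 48 hours at 5 concentrations. Step 3: Interpolate endpoints linearly; if unreached, use highest concentration. Here, GI50 denotes the concentration required for 50% inhibition of growth.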 Activity calls are given as the source filed them. Rule as the data show it: active = GI50 up to about 1.1 µM and inactive = higher.

Experiments:
Experiment in all cases: inhibition of tumour cell growth, NCI panel, 48 h
[1] = test system: HOP-62
[2] = test system: MDA-MB-435
[3] = test system: OVCAR-8
[4] = test system: SW-620
[5] = test system: T47D
[6] = test system: HCT-116
[7] = test system: RPMI-8226
[8] = test system: U-251
[9] = test system: EKVX
[10] = test system: ACHN
[11] = test system: NCI-H522
[12] = test system: NCI-H226
[13] = test system: BT-549
[14] = test system: NCI-H23
[15] = test system: MDA-MB-231
[16] = test system: K562
[17] = test system: SK-OV-3
[18] = test system: SK-MEL-28
[19] = test system: A498

Measured: GI50

CCOC(=O)C1(C(=O)OCC)[C@@H](c2ccccc2)C2=NO[C@@H]3CCC[C@H]1[C@H]23
inactive: [1] 43.6 µM | [2] 21.6 µM | [3] 58.9 µM | [4] 43.8 µM | [5] 20.8 µM | [6] 45.5 µM | [7] 23.5 µM | [8] 47.5 µM | [9] 34.7 µM | [10] 66.7 µM | [11] 42.1 µM | [12] 78.5 µM | [13] 42.7 µM | [14] 42.5 µM | [15] > 100 µM | [16] 52.5 µM | [17] 53.6 µM | [18] > 100 µM

Cc1ccc(C2c3c(n(C)c(=O)n(C)c3=O)OC(N(C)C)(N(C)C)C2(F)F)cc1 (configuration not stated)
inactive: [19] > 100 µM | [1] > 100 µM | [2] > 100 µM | [4] > 100 µM | [5] > 100 µM | [6] > 100 µM | [7] > 100 µM | [8] > 100 µM | [9] > 100 µM | [10] > 100 µM | [12] > 100 µM | [13] > 100 µM | [14] > 100 µM | [15] > 100 µM | [16] > 100 µM | [17] > 100 µM | [18] > 100 µM

N=C(N)NS(=O)(=O)c1ccc(NC(=O)c2cccc3c(NNc4ccc(S(N)(=O)=O)cc4)c4ccccc4nc23)cc1
inactive: [1] > 100 µM | [2] 51.6 µM | [3] 66.1 µM | [4] 45.4 µM | [5] 18.7 µM | [6] 53.8 µM | [7] 39.6 µM | [8] 44.2 µM | [9] 47.4 µM | [10] 66.5 µM | [11] 41.1 µM | [12] > 100 µM | [13] 74.5 µM | [14] > 100 µM | [15] 27.5 µM | [16] 26.6 µM | [17] > 100 µM | [18] > 100 µM

Cc1ccc(/C=C2\N=C(N3CCCC(CO)C3)NC2=O)cc1 (configuration not stated)
inactive: [1] > 100 µM | [2] > 100 µM | [3] > 100 µM | [4] > 100 µM | [5] > 100 µM | [6] > 100 µM | [7] > 100 µM | [8] > 100 µM | [9] > 100 µM | [10] > 100 µM | [11] > 100 µM | [12] > 100 µM | [13] > 100 µM | [14] > 100 µM | [15] > 100 µM | [16] > 100 µM | [17] > 100 µM | [18] > 100 µM

N#Cc1c(-c2ccccc2)[nH]c2ccc(Cl)cc2c1=O
inactive: [1] 25.8 µM | [2] > 100 µM | [3] 86.9 µM | [4] > 100 µM | [5] > 100 µM | [6] 81.8 µM | [7] > 100 µM | [8] 28.2 µM | [9] > 100 µM | [10] > 100 µM | [11] 26.4 µM | [12] 38 µM | [13] 22.5 µM | [14] 92.5 µM | [15] 21.7 µM | [16] > 100 µM | [17] 25.1 µM | [18] > 100 µM

COc1c(-c2nc3ccc(N4CCN(C)CC4)nc3[nH]2)cc(OC)c2c1nc(CO)n2C
inactive: [1] > 100 µM | [2] > 100 µM | [3] > 100 µM | [4] > 100 µM | [5] > 100 µM | [6] > 100 µM | [7] > 100 µM | [8] > 100 µM | [9] > 100 µM | [10] > 100 µM | [11] > 100 µM | [12] > 100 µM | [13] > 100 µM | [14] > 100 µM | [15] > 100 µM | [16] > 100 µM | [17] > 100 µM | [18] > 100 µM
